Assay results reported in patent publication US10660877B2 (BRISTOL-MYERS SQUIBB COMPANY, priority 2016, dated 2020).
Read-outs that look alike come from different tables or passages of the source.

Assays:
[1] = target: human TLR8 (Homo sapiens (Human), UniProt Q9NR97); assay: TLR8 inhibition reporter assay (HEK-Blue cells, SEAP reporter, R848 stimulation);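 note: compounds tested from 0.05 nM to 50 µM, 22 h at 37 °C, SEAP measured with HEK-Blue Detection, inhibition relative to agonist plus DMSO versus a known inhibitor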
Protocol: TLR7/8/9 Inhibition Reporter Assays
Briefly, cells are seeded into Greiner 384 well plates (15000 cells per well for TLR7, 20,000 for TLR8 and 25,000 for TLR9) and then treated with test compounds in DMSO to yield a final dose response concentration range of 0.05 nM-50 μM. […] After a 22 hour incubation at 37° C., 5% CO2, SEAP levels are determined with the addition of HEK-Blue™ Detection reagent (Invivogen), a cell culture medium that allows for detection of SEAP, according to manufacturer's specifications. The percent inhibition is determined as the % reduction in the HEK-Blue signal present in wells treated with agonist plus DMSO alone compared to wells treated with a known inhibitor.

[2] = target: human TLR7 (Homo sapiens (Human), UniProt Q9NYK1); assay: TLR7 inhibition reporter assay (HEK-Blue cells, SEAP reporter, gardiquimod stimulation); type: cell-based
[3] = target: human TLR9 (Homo sapiens (Human), UniProt Q9NR96); assay: TLR9 inhibition reporter assay (HEK-Blue cells, SEAP reporter, ODN2006 stimulation);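 note: compounds tested over 0.05 nM to 50 µM, 22 h incubation, inhibition taken as SEAP signal drop from agonist plus DMSO wells toward a known inhibitor control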
[4] = read-out: TLR8 IC50, HEK-Blue cells overexpressing human TLR8, R848 15.9 μM
[5] = HEK-Blue cells overexpressing human TLR7, gardiquimod 7.5 μM
[6] = read-out: TLR9 IC50, HEK-Blue cells overexpressing human TLR9, ODN2006 5 nM
[7] = read-out: TLR8 IC50, HEK-Blue cells, R848 15.9 μM
[8] = HEK-Blue cells, gardiquimod 7.5 μM
[9] = read-out: TLR9 IC50, HEK-Blue cells, ODN2006 5 nM

human TLR8, sequence (Q9NR97 27-1041): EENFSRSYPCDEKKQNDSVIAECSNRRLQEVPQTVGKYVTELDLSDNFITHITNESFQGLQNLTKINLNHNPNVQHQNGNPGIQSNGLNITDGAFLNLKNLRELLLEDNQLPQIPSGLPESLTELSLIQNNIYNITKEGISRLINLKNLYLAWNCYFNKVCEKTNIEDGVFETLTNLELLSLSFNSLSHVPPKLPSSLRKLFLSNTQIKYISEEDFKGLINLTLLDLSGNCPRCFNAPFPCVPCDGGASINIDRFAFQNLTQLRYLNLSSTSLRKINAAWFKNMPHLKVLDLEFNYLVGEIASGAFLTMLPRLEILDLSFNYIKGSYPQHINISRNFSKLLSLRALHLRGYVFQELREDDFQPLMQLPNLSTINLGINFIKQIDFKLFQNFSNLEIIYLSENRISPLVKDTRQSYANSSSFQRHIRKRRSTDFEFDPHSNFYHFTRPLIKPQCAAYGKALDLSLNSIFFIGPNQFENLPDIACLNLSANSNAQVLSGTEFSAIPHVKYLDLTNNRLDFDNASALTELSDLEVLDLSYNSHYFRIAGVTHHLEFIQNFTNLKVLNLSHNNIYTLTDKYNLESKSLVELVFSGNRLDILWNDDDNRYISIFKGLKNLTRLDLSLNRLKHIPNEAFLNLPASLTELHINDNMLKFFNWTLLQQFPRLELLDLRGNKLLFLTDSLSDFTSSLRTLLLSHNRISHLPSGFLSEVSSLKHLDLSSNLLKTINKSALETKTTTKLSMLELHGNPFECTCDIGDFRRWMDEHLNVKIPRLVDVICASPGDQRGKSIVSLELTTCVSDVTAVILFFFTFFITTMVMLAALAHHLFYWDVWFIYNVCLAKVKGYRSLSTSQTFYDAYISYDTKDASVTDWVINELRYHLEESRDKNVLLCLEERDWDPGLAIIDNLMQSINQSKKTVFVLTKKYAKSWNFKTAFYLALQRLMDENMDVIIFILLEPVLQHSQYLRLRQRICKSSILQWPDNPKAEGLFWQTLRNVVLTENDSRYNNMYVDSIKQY
human TLR9, sequence (Q9NR96 26-1032): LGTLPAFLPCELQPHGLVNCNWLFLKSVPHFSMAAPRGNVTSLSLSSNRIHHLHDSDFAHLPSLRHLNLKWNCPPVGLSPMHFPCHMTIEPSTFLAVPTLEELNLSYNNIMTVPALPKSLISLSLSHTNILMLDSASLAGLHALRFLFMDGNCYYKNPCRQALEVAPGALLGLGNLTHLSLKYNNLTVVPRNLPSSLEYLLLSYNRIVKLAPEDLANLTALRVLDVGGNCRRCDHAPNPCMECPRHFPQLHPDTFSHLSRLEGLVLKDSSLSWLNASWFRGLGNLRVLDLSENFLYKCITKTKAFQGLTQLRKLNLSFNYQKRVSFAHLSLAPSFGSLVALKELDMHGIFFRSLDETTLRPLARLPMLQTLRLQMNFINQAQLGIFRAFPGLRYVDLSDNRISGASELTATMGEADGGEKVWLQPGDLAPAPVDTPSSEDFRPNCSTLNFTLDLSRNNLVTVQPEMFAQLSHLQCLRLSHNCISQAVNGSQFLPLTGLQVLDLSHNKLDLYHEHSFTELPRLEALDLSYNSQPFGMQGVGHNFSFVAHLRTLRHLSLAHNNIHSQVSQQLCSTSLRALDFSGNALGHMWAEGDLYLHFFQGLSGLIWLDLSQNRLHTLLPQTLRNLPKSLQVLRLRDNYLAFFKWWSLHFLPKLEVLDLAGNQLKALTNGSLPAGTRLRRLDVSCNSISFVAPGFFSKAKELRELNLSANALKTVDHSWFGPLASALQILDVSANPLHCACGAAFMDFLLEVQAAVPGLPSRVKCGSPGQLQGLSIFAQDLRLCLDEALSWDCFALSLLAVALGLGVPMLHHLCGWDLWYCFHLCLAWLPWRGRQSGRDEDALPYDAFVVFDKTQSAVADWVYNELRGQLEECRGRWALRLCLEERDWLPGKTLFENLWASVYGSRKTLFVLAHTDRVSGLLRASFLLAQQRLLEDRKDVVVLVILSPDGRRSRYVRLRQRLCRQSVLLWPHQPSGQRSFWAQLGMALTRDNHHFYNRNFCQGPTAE
human TLR7, sequence (Q9NYK1 27-1049): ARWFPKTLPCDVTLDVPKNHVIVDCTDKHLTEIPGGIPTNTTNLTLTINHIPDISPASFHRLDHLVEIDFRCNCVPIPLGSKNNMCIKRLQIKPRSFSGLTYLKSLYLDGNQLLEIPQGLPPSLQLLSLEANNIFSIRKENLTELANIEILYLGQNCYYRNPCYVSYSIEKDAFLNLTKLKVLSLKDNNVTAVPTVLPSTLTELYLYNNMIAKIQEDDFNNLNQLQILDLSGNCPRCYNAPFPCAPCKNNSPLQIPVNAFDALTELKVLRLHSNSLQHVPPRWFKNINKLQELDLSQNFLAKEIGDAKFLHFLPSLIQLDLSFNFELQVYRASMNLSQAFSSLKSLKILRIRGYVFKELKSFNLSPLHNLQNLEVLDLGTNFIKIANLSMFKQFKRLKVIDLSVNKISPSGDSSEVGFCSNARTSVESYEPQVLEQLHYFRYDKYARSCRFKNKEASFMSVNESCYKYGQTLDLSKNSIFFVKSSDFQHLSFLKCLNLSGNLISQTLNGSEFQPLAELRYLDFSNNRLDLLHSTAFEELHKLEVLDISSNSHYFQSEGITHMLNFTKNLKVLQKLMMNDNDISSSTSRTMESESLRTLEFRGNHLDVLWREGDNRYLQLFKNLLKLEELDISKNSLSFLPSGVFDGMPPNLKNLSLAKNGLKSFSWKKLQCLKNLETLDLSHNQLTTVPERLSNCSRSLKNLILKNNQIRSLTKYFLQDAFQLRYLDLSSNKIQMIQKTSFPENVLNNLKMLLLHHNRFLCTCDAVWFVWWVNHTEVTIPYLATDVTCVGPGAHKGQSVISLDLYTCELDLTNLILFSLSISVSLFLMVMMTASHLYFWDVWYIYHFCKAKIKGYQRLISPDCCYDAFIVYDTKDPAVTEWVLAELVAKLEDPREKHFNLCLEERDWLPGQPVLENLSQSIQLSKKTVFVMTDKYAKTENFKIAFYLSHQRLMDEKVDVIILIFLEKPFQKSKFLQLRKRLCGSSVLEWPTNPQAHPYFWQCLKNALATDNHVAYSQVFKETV

Structure (SMILES): Cc1cc(-c2[nH]c3ccc(C4CCNCC4)cc3c2C(C)C)c([N+](=O)[O-])c(C)n1 [Example 27, 2-(2,6-dimethyl-3-nitropyridin-4-yl)-3-isopropyl-5-(piperidin-4-yl)-1H-indole]
- IC50 [1, 4]: 8.9 nM
- IC50 [2, 5]: 15.1 nM
- IC50 [3, 6]: 2970 nM

Structure (SMILES): Cc1cc(-c2[nH]c3ccc(C4CCNCC4)cc3c2CC(F)F)cc(C)n1 [Example 492, 3-(2,2-difluoroethyl)-2-(2,6-dimethylpyridin-4-yl)-5-(piperidin-4-yl)-1H-indole]
- IC50 [1, 4]: 54.1 nM
- IC50 [2, 5]: 15.8 nM
- IC50 [3, 6]: 539 nM

Structure (SMILES): Cc1cc(-c2[nH]c3ccc(C4CCN(C5CCN(C(C)C)CC5F)CC4)cc3c2C(C)C)ccn1 (stereo not drawn) [Example 706, 5-(3′-fluoro-1′-isopropyl-[1,4′-bipiperidin]-4-yl)-3-isopropyl-2-(2-methylpyridin-4-yl)-1H-indole]
- IC50 [1, 4]: 5 nM
- IC50 [2, 5]: 23 nM
- IC50 [3, 6]: 340 nM

Structure (SMILES): Cc1cc(-c2[nH]c3ccc(C4CCN(Cc5[nH]cnc5C)CC4)cc3c2C(C)C)ccn1 [Example 744, 3-isopropyl-5-(1-((4-methyl-1H-imidazol-5-yl)methyl)piperidin-4-yl)-2-(2-methylpyridin-4-yl)-1H-indole]
- IC50 [1, 4]: 13.5 nM
- IC50 [2, 5]: 28.1 nM
- IC50 [3, 6]: 281 nM

Structure (SMILES): Cc1cc(-c2[nH]c3ccc(C4CCN(CC(=O)N5CCC6(CC5)COC6)CC4)cc3c2C(C)C)cc(C)n1 [Example 286, 2-(4-(2-(2,6-dimethylpyridin-4-yl)-3-isopropyl-1H-indol-5-yl)piperidin-1-yl)-1-(2-oxa-7-azaspiro[3.5]nonan-7-yl)ethan-1-one]
- IC50 [1, 4]: 14 nM
- IC50 [2, 5]: 6.2 nM
- IC50 [3, 6]: 261 nM

Structure (SMILES): CCN(CCO)CC(=O)N1CCC(c2ccc3[nH]c(-c4cc(C)nc(C)c4)c(C(C)C)c3c2)CC1 [Example 397, 1-(4-(2-(2,6-dimethylpyridin-4-yl)-3-isopropyl-1H-indol-5-yl)piperidin-1-yl)-2-(ethyl(2-hydroxyethyl)amino)ethan-1-one]
- IC50 [1, 4]: 18.6 nM
- IC50 [2, 5]: 2.2 nM
- IC50 [3, 6]: 705 nM

Structure (SMILES): Cc1cc(-c2[nH]c3ccc(C4CCN(C(=O)CN(C)C)CC4)cc3c2CC(F)F)cc(C)n1 [Example 533, 1-(4-(3-(2,2-difluoroethyl)-2-(2,6-dimethylpyridin-4-yl)-1H-indol-5-yl)piperidin-1-yl)-2-(dimethylamino)ethan-1-one]
- IC50 [1, 4]: 285 nM
- IC50 [2, 5]: 77.8 nM
- IC50 [3, 6]: 1480 nM

Structure (SMILES): CC(C)c1c(-c2ccnc(CO)c2)[nH]c2ccc(C3CCNCC3)cc12 [Example 22, (4-(3-isopropyl-5-(piperidin-4-yl)-1H-indol-2-yl)pyridin-2-yl)methanol]
- IC50 [1, 4]: 75 nM
- IC50 [2, 5]: 80.6 nM
- IC50 [3, 6]: 1500 nM

Structure (SMILES): Cc1cc(-c2[nH]c3cc(F)c(C4CCN(C)CC4)cc3c2C(C)C)cc(C)n1 [Example 828, 2-(2,6-dimethylpyridin-4-yl)-6-fluoro-3-isopropyl-5-(1-methylpiperidin-4-yl)-1H-indole]
- IC50 [1, 7]: 4.8 nM
- IC50 [2, 8]: 1.2 nM
- IC50 [3, 9]: 267 nM

Structure (SMILES): Cc1cc(-c2[nH]c3ccc(C4CCN(CC(O)C(C)(C)C)CC4)cc3c2C(C)C)cc(C)n1 (stereo not drawn) [Example 850, 1-(4-(2-(2,6-dimethylpyridin-4-yl)-3-isopropyl-1H-indol-5-yl)piperidin-1-yl)-3,3-dimethylbutan-2-ol]
- IC50 [1, 7]: 4.7 nM
- IC50 [2, 8]: 3.8 nM
- IC50 [3, 9]: 312 nM

Structure (SMILES): COCC(=O)N1CCC(c2ccc3[nH]c(-c4cc(C)nc(C)c4)c(C(C)C)c3c2)CC1 [Example 115, 1-(4-(2-(2,6-dimethylpyridin-4-yl)-3-isopropyl-1H-indol-5-yl)piperidin-1-yl)-2-methoxyethan-1-one]
- IC50 [1, 4]: 131 nM
- IC50 [2, 5]: 5.4 nM
- IC50 [3, 6]: 44600 nM

Structure (SMILES): Cc1cc(-c2[nH]c3ccc(C4CCN(Cc5c[nH]nn5)CC4)cc3c2C(C)C)cc(C)n1 [Example 446, 5-(1-((1H-1,2,3-triazol-4-yl)methyl)piperidin-4-yl)-2-(2,6-dimethylpyridin-4-yl)-3-isopropyl-1H-indole]
- IC50 [1, 4]: 2.6 nM
- IC50 [2, 5]: 1.3 nM
- IC50 [3, 6]: 292 nM

Structure (SMILES): Cc1cc(-c2[nH]c3ccc(C4CCNCC4)cc3c2C(C)C)c(CO)cn1 [Example 42, (4-(3-isopropyl-5-(piperidin-4-yl)-1H-indol-2-yl)-6-methylpyridin-3-yl)methanol]
- IC50 [1, 4]: 2.5 nM
- IC50 [2, 5]: 52.7 nM
- IC50 [3, 6]: 897 nM

Structure (SMILES): Cc1cc(-c2[nH]c3ccc(C4CCN(C[C@@H]5CCNC5)CC4)cc3c2C(C)C)ccn1 [Example 738, (R)-3-isopropyl-2-(2-methylpyridin-4-yl)-5-(1-(pyrrolidin-3-ylmethyl)piperidin-4-yl)-1H-indole]
- IC50 [1, 4]: 2.5 nM
- IC50 [2, 5]: 11.2 nM
- IC50 [3, 6]: 282 nM

Structure (SMILES): Cc1cc(-c2[nH]c3ccc(C4CCN(C(=O)CN5CCCC(F)C5)CC4)cc3c2C(C)C)cc(C)n1 (stereo not drawn) [Example 363, 1-(4-(2-(2,6-dimethylpyridin-4-yl)-3-isopropyl-1H-indol-5-yl)piperidin-1-yl)-2-(3-fluoropiperidin-1-yl)ethan-1-one]
- IC50 [1, 4]: 34.2 nM
- IC50 [2, 5]: 8.3 nM
- IC50 [3, 6]: 1800 nM

Structure (SMILES): Cc1cc(-c2[nH]c3ccc(C4CCN(C(=O)C5CCN(C(C)C)CC5)CC4)cc3c2C(C)C)cc(C)n1 [Example 497, (4-(2-(2,6-dimethylpyridin-4-yl)-3-isopropyl-1H-indol-5-yl)piperidin-1-yl)(1-isopropylpiperidin-4-yl)methanone]
- IC50 [1, 4]: 13.1 nM
- IC50 [2, 5]: 2.7 nM
- IC50 [3, 6]: 266 nM

Structure (SMILES): Cc1cc(-c2[nH]c3ccc(C4CCN(C5CCOC5)CC4)cc3c2C(C)C)ccn1 (stereo not drawn) [Example 717, 3-isopropyl-2-(2-methylpyridin-4-yl)-5-(1-(tetrahydrofuran-3-yl)piperidin-4-yl)-1H-indole]
- IC50 [1, 4]: 5.9 nM
- IC50 [2, 5]: 15.8 nM
- IC50 [3, 6]: 1590 nM

Structure (SMILES): Cc1cc(-c2[nH]c3ccc(C4CCN(C(=O)CN(C)C)CC4)cc3c2C(C)C)cc(C)n1 [Example 98, 2-(dimethylamino)-1-(4-(2-(2,6-dimethylpyridin-4-yl)-3-isopropyl-1H-indol-5-yl)piperidin-1-yl)ethan-1-one]
- IC50 [1, 4]: 8 nM
- IC50 [2, 5]: 1.6 nM
- IC50 [3, 6]: 579 nM

Structure (SMILES): CCN(CC)C(=O)CN1CCC(c2ccc3[nH]c(-c4cc(C)nc(C)c4)c(C(C)C)c3c2)CC1 [Example 228, 2-(4-(2-(2,6-dimethylpyridin-4-yl)-3-isopropyl-1H-indol-5-yl)piperidin-1-yl)-N,N-diethylacetamide]
- IC50 [1, 4]: 28.2 nM
- IC50 [2, 5]: 11.5 nM
- IC50 [3, 6]: 1110 nM

Structure (SMILES): Cc1cc(-c2[nH]c3ccc(C4CCN(Cc5cc(C)on5)CC4)cc3c2C(C)C)c(C)cn1 [Example 685, 3-((4-(2-(2,5-dimethylpyridin-4-yl)-3-isopropyl-1H-indol-5-yl)piperidin-1-yl)methyl)-5-methylisoxazole]
- IC50 [1, 4]: 3.4 nM
- IC50 [2, 5]: 62.5 nM
- IC50 [3, 6]: 7510 nM

Structure (SMILES): Cc1cc(-c2[nH]c3ccc(C4CCN(CC(=O)N5CCCC5C)CC4)cc3c2C(C)C)cc(C)n1 (stereo not drawn) [Example 259, 2-(4-(2-(2,6-dimethylpyridin-4-yl)-3-isopropyl-1H-indol-5-yl)piperidin-1-yl)-1-(2-methylpyrrolidin-1-yl)ethan-1-one]
- IC50 ([1]; TLR8 IC50, HEK-Blue cells overexpressing human TLR8, R848 15.9 μM): 12.2 nM
- IC50 [2, 5]: 4.5 nM
- IC50 ([3]; TLR9 IC50, HEK-Blue cells overexpressing human TLR9, ODN2006 5 nM): 483 nM

Structure (SMILES): Cc1cc(-c2[nH]c3ccc(C4CCN(C(=O)Cn5ccc(C6CC6)n5)CC4)cc3c2C(C)C)cc(C)n1 [Example 162, 2-(3-cyclopropyl-1H-pyrazol-1-yl)-1-(4-(2-(2,6-dimethylpyridin-4-yl)-3-isopropyl-1H-indol-5-yl)piperidin-1-yl)ethan-1-one]
- IC50 [1, 4]: 129 nM
- IC50 [2, 5]: 18.5 nM
- IC50 [3, 6]: 16200 nM

Structure (SMILES): CCc1c(-c2ccnc(OC)c2)[nH]c2ccc(C3CCN(C4CCN(C)CC4)CC3)cc12 [Example 790, 3-ethyl-2-(2-methoxypyridin-4-yl)-5-(1′-methyl-[1,4′-bipiperidin]-4-yl)-1H-indole]
- IC50 [1, 4]: 1410 nM
- IC50 [2, 5]: 1700 nM
- IC50 [3, 6]: 1780 nM

Structure (SMILES): Cc1cc(-c2[nH]c3ccc(C4CCN(C(=O)CN5C(=O)CN(C)C5=O)CC4)cc3c2C(C)C)cc(C)n1 [Example 160, 3-(2-(4-(2-(2,6-dimethylpyridin-4-yl)-3-isopropyl-1H-indol-5-yl)piperidin-1-yl)-2-oxoethyl)-1-methylimidazolidine-2,4-dione]
- IC50 [1, 4]: 35.8 nM
- IC50 [2, 5]: 7.1 nM
- IC50 [3, 6]: > 50000 nM

Structure (SMILES): Cc1cc(-c2[nH]c3ccc(C4CCN(C(=O)c5ccon5)CC4)cc3c2C(C)C)ccn1 [Example 604, (4-(3-isopropyl-2-(2-methylpyridin-4-yl)-1H-indol-5-yl)piperidin-1-yl)(isoxazol-3-yl)methanone]
- IC50 [1, 4]: 190 nM
- IC50 [2, 5]: 24.9 nM
- IC50 [3, 6]: 23000 nM

Structure (SMILES): CNC(=O)CN1CCC(c2ccc3[nH]c(-c4cc(C)nc(F)c4)c(C(C)C)c3c2)CC1 [Example 498, 2-(4-(2-(2-fluoro-6-methylpyridin-4-yl)-3-isopropyl-1H-indol-5-yl)piperidin-1-yl)-N-methylacetamide]
- IC50 [1, 4]: 1240 nM
- IC50 [2, 5]: 834 nM
- IC50 [3, 6]: 6940 nM

Structure (SMILES): Cc1cc(-c2[nH]c3ccc(C4CCN(CCCN(C)C)CC4)cc3c2C(C)C)cc(C)n1 [Example 674, 3-(4-(2-(2,6-dimethylpyridin-4-yl)-3-isopropyl-1H-indol-5-yl)piperidin-1-yl)-N,N-dimethylpropan-1-amine]
- IC50 [1, 4]: 2.8 nM
- IC50 [2, 5]: 0.8 nM
- IC50 [3, 6]: 156 nM

Structure (SMILES): COc1cc(OC)nc(CN2CCC(c3ccc4[nH]c(-c5cc(C)ncc5C)c(C(C)C)c4c3)CC2)n1 [Example 693, 5-(1-((4,6-dimethoxypyrimidin-2-yl)methyl)piperidin-4-yl)-2-(2,5-dimethylpyridin-4-yl)-3-isopropyl-1H-indole]
- IC50 [1, 4]: 5.2 nM
- IC50 [2, 5]: 33.1 nM
- IC50 [3, 6]: 1680 nM
